Where “and” joins values, the source holds several entries; their conditions need not be identical. Identical values can stand only once.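 All cell lines were grown in 96-well plates and treated with compound for 48 hours. Definition used: TGI = concentration required for complete inhibition of growth.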
Experiments:
Assay in all cases: NCI-60 cell line screen, 48 h
HCC-2998 colon = test system: HCC-2998 colon
UO-31 renal = test system: UO-31 renal
RXF 393 renal = test system: RXF 393 renal
HL-60(TB) leukemia = test system: HL-60(TB) leukemia
786-0 renal = test system: 786-0 renal
SNB-75 CNS = test system: SNB-75 CNS
OVCAR-8 ovarian = test system: OVCAR-8 ovarian
COLO 205 colon = test system: COLO 205 colon
KM12 colon = test system: KM12 colon
MCF7 breast = test system: MCF7 breast

SMILES	TGI (HCC-2998 colon)	TGI (UO-31 renal) [µM]	TGI (RXF 393 renal) [µM]	TGI (HL-60(TB) leukemia)	TGI (786-0 renal)	TGI (SNB-75 CNS)	TGI (OVCAR-8 ovarian)	TGI (COLO 205 colon)	TGI (KM12 colon) [µM]	TGI (MCF7 breast)
CC(C)N(C(C)C)P(OCCC#N)OC1CC(n2cnc3c(=O)[nH]cnc32)OC1COC(=O)NCCCCCCNC(=O)OC(C)(C)c1ccc(-c2ccccc2)cc1 (stereo not given)	65.1 µM	31.3	74.3	36.4 µM	54.7 µM	53.7 µM	92.4 µM	31.2 µM	35.5	
O=C1N[C@@H](COc2ccc(C=Nc3ccc(CCc4ccc(N=Cc5ccc(OC[C@@H]6COC(=O)N6)cc5)cc4)cc3)cc2)CO1		> 100	> 100	> 100 µM	> 100 µM		> 100 µM	> 100 µM	> 100	
c1ccc(CCn2cncn2)cc1	> 100 µM	> 100		> 100 µM		> 100 µM		> 100 µM	> 100	
CC[C@H](C)C1=C(OC(C)=O)[N@+]2([O-])Oc3ccc(-c4c(OC(C)=O)c(OC(C)=O)c(-c5ccc(OC(C)=O)cc5)c(OC(C)=O)c4OC(C)=O)cc3O[C@]2([C@@H](C)CC)C(=O)N1OC(C)=O	0.031 µM	> 50	> 50	21.7 µM	33.8 µM	39.5 µM	37.6 µM	15.8 µM	> 50	> 50 µM
O=C1NC2(C=Cc3c(ccc4ccccc34)O2)Oc2ccccc21 (stereo not given)		9.41	43.3	27.4 µM	> 100 µM	61.4 µM	> 100 µM	42.5 µM	41.1	
CN(C)CCNc1nc2c(no[n+]2[O-])c2ccccc12	59.2 µM	49.1	38.6		99 µM	52.4 µM	32.8 µM	66.7 µM	58.9	> 100 µM
CC1(C)c2ccccc2C(O)C12CCC(=O)CC2 (stereo not given)	> 100 µM	> 100	30.8	> 100 µM	> 100 µM			> 100 µM	> 100	
CC(=O)N(CN1C(=O)CCC1C(=O)O)c1ccccc1Cl (stereo not given)	> 100 µM	> 100	> 100	> 100 µM	> 100 µM	> 100 µM	> 100 µM	> 100 µM	> 100	> 100 µM
CC1(C)CC2C(C1=O)C1(C)CCCC2(C)C1=O (stereo not given)	> 100 µM	> 100		> 100 µM	> 100 µM	> 100 µM	> 100 µM	> 100 µM	> 100	> 100 µM
CCC1(O)CC(OC2CC(N(C)C)C(OC3CC(O)C(OC4CCC(=O)C(C)O4)C(C)O3)C(C)O2)c2c(O)c3c(c(O)c2C1C(=O)OC)C(=O)c1cccc(O)c1C3=O (stereo not given)	0.04 µM	0.0292		0.0496 µM	0.218 µM and 0.449 µM		0.9 µM and 0.187 µM	0.124 µM	1.28	1.02 µM
N#C/C(=C\c1ccccc1Br)C(=O)c1ccccc1	> 100 µM	> 53.9	> 100	15.9 µM	30.5 µM		> 38.6 µM	> 100 µM	> 100	
CCCCCCCCCCSCC(CO)NC(=O)/C=C/c1c(C)[nH]c(=O)[nH]c1=O (stereo not given)	7.38 µM and 11.5 µM	> 50	> 25.7	> 35.2 µM and 6.35 µM		12.9 µM and 18.1 µM	18.6 µM and 10.4 µM	8.39 µM and 17.6 µM	> 50	> 19.3 µM and 17.4 µM
CC(=O)CC(=O)/C=C/c1cccs1		> 100		72.5 µM	> 100 µM		> 100 µM	> 100 µM	> 100	
CN(CCO)/N=N/c1[nH]ncc1C(N)=O	> 100 µM	> 100	> 100	> 100 µM		> 100 µM	> 100 µM	> 100 µM	> 100	> 100 µM
O=C1C[C@H](c2ccc(O)c(O)c2)Oc2cc(O)cc(O)c21	> 100 µM	> 100	> 100	> 100 µM	> 100 µM	> 100 µM	> 100 µM	> 100 µM	> 100	
COc1ccc(C2C(Cl)C(=O)N2NC(=O)Cc2ccccc2)cc1OC (stereo not given)	> 100 µM	> 100	> 100	> 100 µM	> 100 µM	> 100 µM	> 100 µM	> 100 µM	> 100	
C=CC1(c2ccc(OC)cc2)OCCCO1	> 100 µM	> 100	> 100	> 100 µM	> 100 µM	> 100 µM	> 100 µM	> 100 µM	> 100	> 100 µM
c1ccc(C2[C@@H]3CCCc4ccccc4C3=NN2c2ccccc2)cc1 (stereo not given in full)	> 100 µM	> 100	> 100	> 100 µM	> 100 µM		> 100 µM	> 100 µM	> 100	
CCN(CC)CCNc1ccc2ncn3c4cc(=O)ccc4c(O)c1c23	15.6 µM	22	3.68	11.9 µM	14.9 µM	21.6 µM	7.77 µM	16.6 µM	22.1	

Source: PubChem BioAssay (NCI)
